# From patent US20040019026A1, “Compounds useful for treating hypertriglyceridemia” (priority 2000, published 2004)
# Where “and” joins values, the source holds several entries; their conditions need not be identical. Identical values can stand only once.
# What was measured:
# [1] = system: patients with rheumatoid arthritis; test: Trial in arthritis patients, 1200 mg oral fluasterone daily: HDL levels (Example 5b); type: in vivo, human
# Protocol: In this trial patients with rheumatoid arthritis were treated for 3 to 12 weeks with 1200 mg oral fluasterone daily. A placebo group was also included.
# [2] = system: male BKS.Cg-m+/+Leprdb mice; test: Seminal vesicle weights, androgenic potency (Example 9); type: in vivo
# From the text: Eight week old male BKS.Cg-m^+/+Lepr^db mice were obtained from Jackson Laboratories. These mice have a point mutation in the leptin receptor gene and produce a truncated receptor with impaired signaling capacity. These animals are severely insulin resistant and manifest an uncontrolled rise in blood sugar, severe depletion of the insulin-producing beta-cells of the pancreatic islets, and death by 10 months of age. The male animals also have very low plasma testosterone levels and as a consequence undeveloped seminal vesicle glands. Administration of androgens to these mice produces an increase in seminal vesicle weights similar to that seen in castrated males. Thus these animals can be used to assess androgenic potency of various compounds.
# The mice were housed five per cage on Alphacel bedding with ad libitum access to Purina 5015 chow and acidified water. The mice were housed in the Central Animal Facility (6th floor, Pharmacy building) with twelve hours of alternating light and darkness.
# A week later, the mice were treated subcutaneously (s.c.) with 0.05 mL fluasterone (16α-fluoro-5-androsten-17-one) suspended in an Emulphor-saline vehicle to give either a dose of 5 mg/kg s.c. or 20 mg/kg s.c. or intraperitoneally (i.p.) with 0.05 mL of fluasterone suspended in an Emulphor-saline vehicle to give a dose of 5 mg/kg. The Control mice received the Emulphor-saline vehicle s.c.
# All the mice were anesthetized lightly with isoflurane before treatment with fluasterone to minimize the risk of stressing the mice while giving the s.c. dose. Their food was removed the afternoon before administration with drug and the chow was to the mice the next morning immediately after treatment. All the mice had their chow removed daily and restored just after fluasterone administration. During the week, the mice had access to chow for approximately 6½ hours, while on the weekends, the mice had approximately 4½ hours of access to chow. Mice were treated daily (weekdays and weekends).
# Mice were treated daily with fluasterone, for about one month. Then the mice were sacrificed with an overdose of CO2. The seminal vesicles of each mouse were excised, cleaned of adventitia and the coagulating glands, and any liquid was pressed out and then the glands were weighed on a Mettler AE50 balance.
# [3] = system: patients with Metabolic Syndrome; test: Phase I/II buccal tablet study: triglyceride and HDL levels, incl. obese subset (Examples 7 and 8); type: in vivo, human
# Protocol: The study was a phase I/II randomized, double blind, dose-ranging, placebo-controlled, evaluation of the safety, tolerance, and activity on lipid laboratory markers after transmucosal (buccal) administration of two dose levels (20 mg or 80 mg) of fluasterone (16α-fluoro-5-androsten-17-one) compared to placebo in patients with Metabolic Syndrome. Study treatment consisted of eight weeks of buccal tablet administration of fluasterone or placebo control and subsequent follow-up for two weeks.
# After patient consent had been obtained, patients were screened for eligibility into the study. Following informed consent, screening and laboratory testing, patients entered a six-week dietary run-in phase during which they followed a Step II AHA diet, and discontinued all lipid-lowering agents. At 4 weeks into the dietary run-in phase, qualifying lipid and endocrine laboratory measurements were performed. After the run-in phase, patients were randomized to receive either fluasterone or placebo control. Patients received fluasterone or placebo daily for 8 weeks. Patients were followed for an additional 2 weeks for total study duration of 16 weeks. The dose levels evaluated in this study were either 20 mg or 80 mg buccal tablets of fluasterone or placebo control that were formulated to dissolve between the lower gingival surfaces of the jaw and buccal mucosa of the cheek pouch.
# Fluasterone or placebo equivalent was administered as either one or four buccal tablets. Each buccal tablet contained 16-α-fluoro-5-androsten-17-one, mannitol, crospovidone, magnesium stearate, polyethylene glycol 3350, silica gel and sodium lauryl sulfate. Patients were instructed to ingest water prior to placing the buccal tablets in their mouth. The tablets were held in the mouth without disturbance for approximately 10 minutes. Patients were instructed not to chew or swallow the tablets and not drink or eat for 30 minutes after study drug administration.
# The study consisted of a 6-week dietary run-in phase during which they followed a Step II AHA diet and discontinued all lipid-lowering agents. After the run-in phase, patients who qualified based on lipid and endocrine laboratory measurements at the qualifying visit (week −2) were randomized to receive fluasterone or placebo control. Patients received fluasterone or placebo control daily for 8 weeks. Patients were followed for an additional 2 weeks to collect adverse events and an additional lipid profile for total study duration of 16 weeks.
# Blood samples were collected for lipid determinations at the qualifying visit (week −2), at study day 1, and at weeks 2, 4, 6, 8, and 10.
# There were 8 patients treated with 80 mg fluasterone, 9 with 20 mg fluasterone, 3 patients with 80 mg placebo, and 4 patients with 20 mg placebo.
# The triglyceride level in the 80 mg fluasterone group declined from baseline by 34% at week […] and by 35% at week […]. In the combined placebo group at the corresponding time points the triglyceride levels increased by 6% and 7% respectively.
# [4] = 5 mg/kg, i.p. daily about one month, individual mice
# [5] = 5 mg/kg, s.c. daily about one month, individual mice
# [6] = 20 mg/kg, s.c. daily about one month, individual mice
# [7] = 20 mg buccal daily, Week 2, 4, 6, & 8
# [8] = 80 mg buccal daily, Week 2, 4, 6, & 8
# [9] = obese subset, 80 mg buccal daily, Week 2, 4, 6, and 8
# [10] = obese subset, 80 mg buccal daily, Week 8
# [11] = obese subset, 80 mg buccal, Baseline (−2, 0)
compound,measurement,setting,value
"C[C@]12CCCCC1=CC[C@@H]1[C@@H]2CC[C@]2(C)C(=O)[C@H](F)C[C@@H]12 [fluasterone, 16α-fluoro-5-androsten-17-one]",HDL Levels,"[1]; Combined (20), pretreatment",57.4 ± 14.7
same,HDL Levels,"[1]; Combined, treatment 1200 mg oral daily, 3 to 12 weeks, p < 0.02",46.9 ± 8.9
same,HDL Levels,"[1]; Females (16), pretreatment",59.8 ± 14.6 (16)
same,HDL Levels,"[1]; Females, treatment 1200 mg oral daily, 3 to 12 weeks, p < 0.01",46.8 ± 9.6
same,HDL Levels,"[1]; Males (4), pretreatment",47.0 ± 9.1 (4)
same,HDL Levels,"[1]; Males (4), treatment 1200 mg oral daily, 3 to 12 weeks",47.0 ± 5.8 (4)
same,Seminal Vesicles,[2]; [4],85.6 mg and 81.8 mg and 71.9 mg and 81.0 mg
same,s.v./b.w.,[2]; [4],2.1084 and 1.6166 and 1.5630 and 2.0301
same,Seminal Vesicles,"[2]; 5 mg/kg, i.p., Average, p < 0.005",80.1 p < 0.005 mg
same,s.v./b.w.,"[2]; 5 mg/kg, i.p., Average, p < 0.01",1.8295
same,Seminal Vesicles,[2]; [5],40.7 mg and 43.4 mg and 44.5 mg and 42.2 mg and 41.9 mg
same,s.v./b.w.,[2]; [5],0.8568 and 1.1361 and 0.9570 and 0.9420 and 0.9566
same,Seminal Vesicles,"[2]; 5 mg/kg, s.c., Average",42.5 mg
same,s.v./b.w.,"[2]; 5 mg/kg, s.c., Average, n.s.",0.9697 n.s.
same,Seminal Vesicles,[2]; [6],39.6 mg and 35.8 mg and 35.4 mg and 34.6 mg
same,s.v./b.w.,[2]; [6],0.8684 and 1.0000 and 0.8872 and 0.8065
same,Seminal Vesicles,"[2]; 20 mg/kg, s.c., Average, n.s.",36.4 n.s. mg
same,s.v./b.w.,"[2]; 20 mg/kg, s.c., Average, n.s.",0.8905 n.s.
same,Androgenicity,"[2]; 200 mg/kg p.o. dose, mouse",lack of androgenicity
same,Effect on seminal vesicle weights,[2]; i.p. route,highly significant increase in seminal vesicle weights
same,Effect on seminal vesicle weights,[2]; s.c. route at much higher doses,no apparent effect on seminal vesicle weights
same,HDL,[3]; [7],32.6 ± 6.4 (36) mg/dL
same,Triglycerides,[3]; [7],523 ± 311 (36) mg/dL
same,HDL,"[3]; 20 mg buccal daily, Week 8",33.3 ± 6.5 (9) mg/dL
same,Triglycerides,"[3]; 20 mg buccal daily, Week 8",538 ± 285 (9) mg/dL
same,HDL,"[3]; 20 mg buccal, Baseline (−2, 0)",31.6 ± 6.2 (18) mg/dL
same,Triglycerides,"[3]; 20 mg buccal, Baseline (−2, 0)",507 ± 192 (18) mg/dL
same,HDL,[3]; [8],41.1 ± 8.1 (32) mg/dL
same,Triglycerides,[3]; [8],342 ± 111 (32) mg/dL
same,HDL,"[3]; 80 mg buccal daily, Week 8",41.6 ± 9.4 (8) mg/dL
same,Triglycerides,"[3]; 80 mg buccal daily, Week 8",292 ± 92.4 (8) mg/dL
same,Effect on HDL level,"[3]; 80 mg buccal dose, all patients",no apparent decline in HDL level
same,HDL,"[3]; 80 mg buccal, Baseline (−2, 0)",40.8 ± 8.9 (16) mg/dL
same,Triglycerides,"[3]; 80 mg buccal, Baseline (−2, 0)",455 ± 157 (16) mg/dL
same,Reduction of mean triglyceride level compared to baseline,"[3]; 80 mg buccal, mean 8-week level",36%
same,Reduction of mean triglyceride level compared to baseline,"[3]; 80 mg buccal, mean of week 2, 4, 6, & 8",at least 25%
same,Effect on HDL levels,"[3]; obese subset, 80 mg buccal",no decline in HDL levels from baseline
same,HDL,[3]; [9],40.3 ± 6.3 (20) mg/dL
same,Triglycerides,[3]; [9],313 ± 93.7 (20) mg/dL
same,HDL,[3]; [10],40.3 ± 4.6 (5) mg/dL
same,Triglycerides,[3]; [10],307 ± 106 (5) mg/dL
same,HDL,[3]; [11],39.2 ± 7.3 (10) mg/dL
same,Triglycerides,[3]; [11],472 ± 169 (10) mg/dL
same,Decline of triglyceride level from baseline,"[3]; obese subset, 80 mg buccal, week 2, 4, 6, and 8, p=0.0368 vs combined placebo",34%
same,Decline of triglyceride level from baseline,"[3]; obese subset, 80 mg buccal, week 8",35%
